Reference: article PMC11020070, “Discovery of Protease-Activated Receptor 4 (PAR4)-Tethered Ligand Antagonists Using Ultralarge Virtual Screening” (ACS Pharmacology & Translational Science, 2024)
Entries after “also recorded” stand apart in the source; their conditions may differ.

Columns and labels:
Assay type in all cases: cell-based
[1] = target: T1, PAR1 (Homo sapiens, UniProt P25116); experiment: Human platelet activation by PAR1 agonist peptide SFLLRN; details: 10 μM compound, PAR1AP SFLLRN
T1 construct: endogenous in cells; host or cells: platelets
T1 sequence (P25116 22-425): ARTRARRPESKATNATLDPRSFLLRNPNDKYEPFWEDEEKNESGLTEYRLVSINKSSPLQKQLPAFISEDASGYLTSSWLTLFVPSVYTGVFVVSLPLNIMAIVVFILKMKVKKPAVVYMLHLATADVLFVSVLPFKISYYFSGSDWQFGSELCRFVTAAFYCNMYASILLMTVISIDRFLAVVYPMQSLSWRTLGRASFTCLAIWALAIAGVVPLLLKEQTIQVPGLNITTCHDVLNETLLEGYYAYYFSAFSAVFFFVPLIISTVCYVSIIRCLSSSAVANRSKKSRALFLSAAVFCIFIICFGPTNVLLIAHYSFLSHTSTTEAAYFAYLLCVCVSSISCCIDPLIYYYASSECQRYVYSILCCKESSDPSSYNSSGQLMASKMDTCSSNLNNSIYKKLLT
Description: (§1) Figure 5 (A) Off-target controls: % of vehicle control for γ-thrombin (100 nM), PAR4 component of α-thrombin (5 nM α-thrombin +1 μM vorapaxar), PAR4 agonist peptide 200 μM AYPGKF, 200 μM PAR1 agonist peptide SFLLRN, and GPVI agonist convulxin 3.16 nM.
(§2) Compounds were screened for inhibition activity against human PAR4 using 100 nM γ-thrombin or 200 μM PAR4-AP in a single-point assay (10 μM test compound). Dose–response curves were conducted for active compounds. Active compounds were also assessed at a single concentration of 10 μM against other agonists, including the PAR4 component of α-thrombin (5 nM α-thrombin +1 μM vorapaxar), the PAR1 agonist peptide (20 μM SFFLRN), and the GPVI receptor agonist convulxin (3 nM).

[2] = target: T2, GPVI receptor (Homo sapiens, UniProt Q9HCN6); experiment: Off-target control: convulxin activation of GPVI receptor in human platelets; details: 10 μM compound, convulxin 3.16 nM
T2 construct: endogenous in cells; host or cells: washed human platelets
T2 sequence (Q9HCN6 21-339): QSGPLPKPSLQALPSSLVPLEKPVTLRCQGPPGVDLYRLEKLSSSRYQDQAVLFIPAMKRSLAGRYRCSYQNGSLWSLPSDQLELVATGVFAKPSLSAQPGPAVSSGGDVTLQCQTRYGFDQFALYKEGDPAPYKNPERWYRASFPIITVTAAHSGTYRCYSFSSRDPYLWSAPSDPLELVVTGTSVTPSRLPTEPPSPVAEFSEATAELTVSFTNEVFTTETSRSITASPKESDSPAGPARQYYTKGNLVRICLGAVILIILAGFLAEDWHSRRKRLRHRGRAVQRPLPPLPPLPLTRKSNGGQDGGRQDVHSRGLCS
T2 sequence (P30273 19-86 partner): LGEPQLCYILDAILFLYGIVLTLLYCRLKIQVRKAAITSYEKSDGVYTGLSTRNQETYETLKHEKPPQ
Description: The hit compound (7) was tested against several platelet activators including targeting PAR1, PAR4, and GPVI collagen receptors (Figure 5). […] Taken together, the inhibition of the off-target GPVI and the divergence of the inhibition of the γ-thrombin readouts PAC1 vs P-selectin are consistent with the C5 compound not being a specific antagonist of PAR4.
as §1, §2

[3] = target: T3, PAR4 (Homo sapiens, UniProt Q96RI0); experiment: Human platelet activation by PAR4 agonist peptide (PAR4-AP, AYPGKF); design: endogenous in cells; host or cells: platelets; details: 10 μM compound, 200 μM AYPGKF
T3 sequence (Q96RI0 18-385): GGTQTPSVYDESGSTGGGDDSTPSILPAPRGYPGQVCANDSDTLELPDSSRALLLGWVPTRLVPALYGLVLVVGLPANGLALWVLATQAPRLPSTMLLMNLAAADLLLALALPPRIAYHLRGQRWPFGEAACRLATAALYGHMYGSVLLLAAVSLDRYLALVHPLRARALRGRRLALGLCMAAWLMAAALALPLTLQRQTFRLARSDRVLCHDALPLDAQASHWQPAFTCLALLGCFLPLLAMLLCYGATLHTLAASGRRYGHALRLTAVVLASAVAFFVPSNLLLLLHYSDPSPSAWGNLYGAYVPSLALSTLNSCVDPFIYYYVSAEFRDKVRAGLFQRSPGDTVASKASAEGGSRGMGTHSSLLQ
Description: To test the antagonistic effect of the compounds on PAR4, a flow cytometry assay of human platelets was employed. Each compound was screened at 10 μM in human platelets using flow cytometry for GPIIbIIIa activation (PAC1) and P-selectin (CD62p) expression as previously described.[4] Activation of GPIIbIIIa allows interaction with divalent fibrinogen or multivalent von Willebrand factor, leading to platelet aggregation.[41] PAR4 stimulation also triggers α-granule secretion containing P-selectin.[5] […] Platelets were treated with each test compound or vehicle control DMSO before activating with γ-thrombin (100 nM) or PAR4 agonist peptide mimetic (200 μM, “PAR4-AP” AYPGKF) for 30 min. γ-thrombin activates PAR4 but not PAR1.[42] […]
Activation of washed human platelets was monitored by flow cytometry for the detection of PAC1 (GPIIbIIIa activation) and CD62p (P-selectin expression) binding as previously described.[4] […] Platelets were collected, counted on a Z1 Coulter Particle Counter (Beckman Coulter, Brea, CA), and diluted in TBB to 1.5 × 10^7 platelets/mL. […] Data were collected on a three-laser BD LSRFortessa (Becton Dickinson) and analyzed with FlowJo software (FlowJo LLC, Ashland, OR). The mean fluorescence intensity (geometric) of PE and FITC was determined from 30,000 events after compensation correction. […]

Q: With `Cc1nc(NC(=O)c2cc(-c3ccccc3)n(-c3ccccc3)n2)n[nH]1` [Compound 7] as the molecule, how does the “inhibition of PAR1 agonist peptide activation” value [1] read?
A: did not inhibit

Q: And the “inhibition of convulxin activation of GPVI receptor” value [2]?
A: did not inhibit

Q: And the “inhibition of PAR4 agonist peptide activation” value [3]?
A: not inhibiting; also recorded: did not inhibit
